Experimental data: the NIST ThermoML archive (doi:10.1021/je500422t)
± gives the expanded uncertainty stated by the source.

What was measured:
[1] = Liquid; for mass density: 298.2 K, 101.33 kPa, Vibrating tube method; for Normal boiling temperature: Distillation
[2] = refractive index (Na D-line) (dimensionless); conditions: 298.2 K; 101.33 kPa; Liquid; Standard Abbe refractometry

Row | mass density [1] [kg/m3] | Normal boiling temperature [1] [°C] | refractive index [2] | Structure (SMILES)
1 | 1061.9 ± 1 | 90.08 ± 1.1 | 1.3685 ± 0.0004 | COC(=O)OC [dimethyl carbonate]
2 | 1220.04 ± 1.1 | 101.2 ± 1.1 | 1.37144 ± 0.00039 | O=CO [formic acid]
